Experimental data: patent US10023615B2, “Efficient transport into white blood cells” (priority 2008, dated 2018)
Entries after “also recorded” stand apart in the source; their conditions may differ. Ends that are not written are not given here.

Assays:
[1] = system: primary cultured macrophages; assay: Incorporation of XG-102 into primary cultured macrophages, antibody detection; type: cell-based; conditions: incubated and extensively washed; specific antibody
Protocol: FIG. 5: (A): Primary cultured macrophages were incubated with XG-102 (SEQ ID NO: 233) and extensively washed. […] (B): Mice were injected i.v. with 0.1 mg/kg FITC-D-TAT (SEQ ID NO: 4 plus FITC) and were sacrificed 24 hours later with PAF perfusion through the heart. Slices were obtained after cryoprotection using cryostat.

[2] = system: amyloid plaques in cortex and hippocampus; assay: Amyloid depositions and plaque load (6E10 IHC, ThioflavinS) in hAPP Tg mice; type: in vivo, mouse
Protocol: a) METHODS • i) Introduction • The study was designed to evaluate the efficacy of the test substance (XG-102, SEQ ID NO: 233) on behavioral, biochemical and histological markers using 5 months (±2 weeks) old female hAPP Tg mice. Therefore, mice were treated every two or three weeks up to 4 months and in the end of the treatment period behavior was evaluated in the Morris Water Maze. At sacrifice brain, CSF and blood were collected. Aβ40 and Aβ42 levels were determined in four different brain homogenate fractions as well as in CSF of Tg mice. Plaque load was quantified in the cortex and the hippocampus of 8 Tg animals per treatment group.
iv) Treatment • […] female hAPP transgenic mice were treated with either 0.1 mg/kg b.w./every two weeks or 10 mg/kg b.w./every three weeks of the test substance XG-102 (SEQ ID NO: 233) in two different dosages (n=12/group) or treated with the vehicle (n=12) s.c. once every three weeks over four months.
viii) Evaluation of Brain Morphology • Brain tissues of all Tg animals investigated were handled in exactly the same way to avoid bias due to variation of this procedure. From brain halves of 24 Tg mice (8 of each group) 20 cryo-sections per layer (altogether 5 layers), each 10 μm thick (Leica CM 3050S) were sagittally cut and 5 (one from each layer) were processed and evaluated for quantification of plaque load. The five sagittal layers corresponded with the FIGS. 104 to 105, 107 to 108, 111 to 112, 115 to 116 and 118 to 119 according to the morphology atlas “The Mouse Brain” from Paxinos and Franklin (2nd edition). The first layer was specified by the requirement to include the whole hippocampus with it's regions CA1, CA2, CA3, GDlb and GDmb. Immunoreactivity was quantitatively evaluated in the hippocampus and in the cortex using the monoclonal human Aβ-specific antibody 6E10 (Signet) as well as ThioflavinS staining. Remaining brain hemispheres or tissue not used were saved and stored at JSW CNS until the end of the project.
b) Evaluation • i) Behavior • In the Morris Water Maze trials length of swimming path, escape latencies, swimming speed and in the probe trial crossings over the former platform position and the time spent in each quadrant of the pool were measured for each Tg animal with a special computer software. • ii) Biochemical Evaluation • From all Tg mice CSF samples as well as samples from the brain preparations were analyzed with commercially available Aβ1-40 and Aβ1-42 ELISAs. Measurements of adequate standards were performed concurrently. Samples from brain preparations were analyzed in duplicates. […]

dqsrpvqpflnIttprkprpprrrqrrkkrg (DQSRPVQPFLNLTTPRKPRPPRRRQRRKKRG; not fully specified (some residues); printed as dqsrpvqpflnIttprkprpprrrqrrkkrg) [XG-102]
incorporation into cells [1]: strongly incorporated into primary macrophages
mean plaque size (ThioflavinS, hippocampus) ([2]; 0.1 mg/kg): reduced mean plaque size, however this effect did not reach significance level in the ANOVA
6E10 IR plaque load (human amyloid) ([2]; 10 mg/kg): increased versus vehicle; also recorded: a tendentious increase of human amyloid beta
hippocampal ThioflavinS positive plaques (number, area percentage) ([2]; 0.1 and 10 mg/kg): a negatively dose dependent reduction; also recorded: dose dependently reduced
beta-sheet structures in plaques (6E10 and ThioflavinS quantifications) ([2]; mouse, in vivo): a selective reduction of beta-sheet structures in the center of the plaques
cortical ThioflavinS plaque load ([2]; mouse, in vivo): not given for cortical plaques; also recorded: cortical plaque load remained unchanged
